Results: US11370785B2, “Multicyclic compounds as farnesoid X receptor modulators” (BRISTOL-MYERS SQUIBB COMPANY, priority 2017, dated 2022)
Read-outs that look alike come from different tables or passages of the source.

Biological target: T1, human FXR (Homo sapiens, UniProt Q96RI1)
T1 construct: expressed in transfected cells; host or cells: HEK293 cells stably carrying a 5xGal4-response-element firefly luciferase reporter, transiently transfected with the pcDNA3.1-Gal4-FXR plasmid
T1 sequence (Q96RI1 262-486 limits assumed): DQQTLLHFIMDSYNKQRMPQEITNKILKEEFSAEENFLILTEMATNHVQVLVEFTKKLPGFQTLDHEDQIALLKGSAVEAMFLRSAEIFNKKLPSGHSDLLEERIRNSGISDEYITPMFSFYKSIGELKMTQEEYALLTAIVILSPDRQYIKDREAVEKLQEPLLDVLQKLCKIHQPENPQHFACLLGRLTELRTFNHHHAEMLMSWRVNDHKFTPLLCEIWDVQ
Assay: transient human FXR/Gal4-luciferase reporter assay
Type: cell-based
Details: Gal4-hFXR reporter in HEK293 cells
Procedure: The exemplified compounds of the present invention were tested in the transient human FXR/Gal4-luciferase reporter assay, and assay results were reported in Table 1 together with other analytical data.
A Gal4-hFXR fusion construct reporter system was used as the primary assay to characterize compound activity. A construct including 5 copies of the Gal4 promoter response element upstream of a firefly luciferase reporter cDNA was stably expressed in HEK293 cells. This reporter cell line was maintained in Dulbecco's Modified Eagle's medium (DMEM; Gibco) supplemented with 1% penicillin-streptomycin (P/S) solution, 500 μg/mL Zeocin and 10% charcoal/dextran-treated fetal bovine serum (cs-FBS) at 37° C. in a humidified 5% CO2 atmosphere. Another plasmid was constructed in which the human cytomegalovirus promoter in the pcDNA3.1 vector directs the expression of the cDNA encoding a fusion protein comprised of the DNA binding domain from the Gal4 transcription factor fused to the ligand binding domain from human FXR.
The day prior to transfection, the reporter cells in culture are detached from the plate with trypsin and plated into a T75 flask at a sufficient density to achieve approximately 90% confluence the next morning. The transfection reagents are prepared by separately diluting 25 μg of the pcDNA3.1-Gal4-FXR plasmid into 1.87 mL of Opti-MEM (Thermo-Fisher), and 40 μL of Lipofectamine 2000 (Thermo-Fisher) into 1.87 mL of Opti-MEM, and then adding the diluted DNA solution into the diluted Lipofectamine 2000 solution and incubating at room temperature for 15-20 minutes. The mixture is further diluted with 10 mL of a solution comprised of DMEM, 10% cs-FBS, and 1% P/S immediately prior to transferring to the cells. The maintenance culture media is aspirated from the cells and the final transfection mixture is added before the cells are incubated overnight at 37° C. in a humidified 5% CO2 atmosphere. This protocol can be scaled up, and the transiently transfected cells can be cryopreserved in an assay-ready format.
For compound testing, 100 nL of the compounds (serial dilutions in DMSO) are dispensed with an Echo acoustic dispenser (Labcyte) into the wells of a Corning/Costar clear bottom 384-well white plate. The transfected cells are harvested, counted, and diluted such that 10-25,000 cells in 25 μL are plated into each well of the 384-well compound assay plate. The compound-treated cells are incubated overnight at 37° C. in a humidified 5% CO2 atmosphere. The next morning 25 μL of Steady-Glo (Promega) are added to each well of the plate, the mixture is incubated for 15 min. with shaking, and luminescence is measured on an Envision (Perkin Elmer) plate reader. Background counts from cells treated with DMSO alone are subtracted from all raw counts, and the corrected values are converted to a percentage of the control response attained with 8 μM GW-4064.

[1] = relative to 8 μM GW-4064, read-out: FXR EC50

Row | SMILES | EC50 [1] [nM] | EC50 (read-out: HLE GAL-FXR EC50) [nM]
1 | O=C(O)c1cc(F)c2nc(N3CCC4(CC3)CC(=Cc3c(-c5c(Cl)cccc5Cl)noc3C(F)(F)F)C4)sc2c1 [Example 126] | 68 | 
2 | COc1ccc(C(=O)O)c2ccc(N3CCC4(CC3)CC(=Cc3c(-c5ccccc5C(F)(F)F)noc3C3CC3)C4)nc12 [Example 117] | 241 | 
3 | O=C(O)c1ccc2nc(N3CCC4(CC3)CC(Cc3c(-c5ccccc5C(F)(F)F)noc3C3CC3)C4)sc2n1 [Example 114] | 744 | 
4 | O=C(O)c1cc(OC2COC2)c2cc(N3CCC4(CC3)CC(=Cc3c(-c5c(Cl)cncc5Cl)noc3C3CC3)C4)ccc2n1 [Example 139] | 47 | 
5 | O=C(O)c1cc(C(F)(F)F)c2cc(N3CCC4(CC3)CC(=Cc3c(-c5ccccc5OC(F)(F)F)noc3C3CC3)C4)ccc2n1 [Example 25] | 23 | 
6 | O=C(O)c1cc(OCC(F)F)c2cc(N3CCC4(CC3)CC(=Cc3c(-c5ccccc5C(F)(F)F)noc3C3CC3)C4)ccc2n1 [Example 148] | 4 | 
7 | O=C(O)c1cc(OC(F)(F)F)c2nc(N3CCC4(CC3)CC(=Cc3c(-c5c(Cl)cncc5Cl)noc3C3CC3)C4)sc2c1 [Example 101] | 33 | 
8 | O=C(O)c1cccc(CN2CCC3(CC2)CC(=Cc2c(-c4c(Cl)cccc4Cl)noc2C2CC2)C3)c1 [Example 9, 3-((2-((5-Cyclopropyl-3-(2,6-dichlorophenyl)isoxazol-4-yl)methylene)-7-azaspiro[3.5]nonan-7-yl)methyl)benzoic acid] |  | 959
9 | O=C(O)c1ccc2cc(N3CCC4(CC3)CC(=Cc3c(-c5c(Cl)cccc5Cl)noc3C3CC3)C4)ccc2n1 [Example 2, 6-(2-((5-Cyclopropyl-3-(2,6-dichlorophenyl)isoxazol-4-yl)methylene)-7-azaspiro[3.5]nonan-7-yl)quinoline-2-carboxylic acid] |  | 47
10 | O=C(O)c1cc(F)c2nc(N3CCC4(CC3)CC(=Cc3c(-c5ccccc5OC(F)(F)F)noc3C3CC3)C4)sc2c1 [Example 26] | 352 | 
11 | O=C(O)c1cc(F)c2nc(N3CCC4(CC3)CC(=Cc3c(-c5c(Cl)cccc5Cl)noc3C3CC3)C4)sc2c1 [Example 130] | 260 | 
12 | NC(=O)N1CCc2cc(N3CCC4(CC3)CC(=Cc3c(-c5ccccc5OC(F)(F)F)noc3C3CC3)C4)ccc2C1 [Example 180, 6-(2-((5-Cyclopropyl-3-(2-(trifluoromethoxy)phenyl)isoxazol-4-yl)methylene)-7-azaspiro[3.5]nonan-7-yl)-3,4-dihydroisoquinoline-2(1H)-carboxamide] | 1400 | 
13 | CCc1cc(N2CCC3(CC2)CC(Cc2c(-c4c(Cl)cccc4Cl)noc2C2CC2)C3)ccc1OCC(=O)O [Example 96] | 793 | 
14 | Cn1cc(C(=O)O)c2ccc(N3CCC4(CC3)CC(=Cc3c(-c5c(Cl)cccc5Cl)noc3C3CC3)C4)cc21 [Example 24] | 9 | 
15 | O=C(O)c1cc(F)c2nc(N3CCC4(CC3)CC(Cc3c(-c5ccccc5OC(F)(F)F)noc3C3CC3)C4)sc2c1 [Example 91] | 410 | 
16 | COCCN(C)C(=O)c1cc(OC2CCC2)c2cc(N3CCC4(CC3)CC(Cc3c(-c5ccccc5C(F)(F)F)noc3C3CC3)C4)ccc2n1 [Example 182] | 24 | 
17 | O=C(O)c1ccc(N2CCC3(CC(=Cc4c(-c5c(Cl)cccc5Cl)noc4C4CC4)C3)C2)nc1 (stereo not shown) [Example 132] | 514 | 
18 | O=C(O)Cc1ccc(N2CCC3(CC2)CC(=Cc2c(-c4c(Cl)cccc4Cl)noc2C2CC2)C3)cc1 [Example 45] | 320 | 
19 | O=C(O)c1cc(OC2CCCC2)c2cc(N3CCC4(CC3)CC(=Cc3c(-c5ccccc5C(F)(F)F)noc3C3CC3)C4)ccc2n1 [Example 120] | 3 | 
20 | CCOc1cc(C(N)=O)ncc1N1CCC2(CC1)CC(=Cc1c(-c3ccccc3C(F)(F)F)noc1C1CC1)C2 [Example 142] | 189 | 
21 | O=C(O)c1ncc(N2CCC3(CC2)CC(Cc2c(-c4ccccc4C(F)(F)F)noc2C2CC2)C3)cc1C(F)(F)F [Example 156] | 1670 | 
22 | Cc1cccc(Cl)c1-c1noc(C2CC2)c1C=C1CC2(CCN(c3ccc4nc(C(=O)O)cc(C(F)(F)F)c4c3)CC2)C1 [Example 58] | 10 | 

Row | SMILES | EC50 [1] [nM] | EC50 (read-out: HLE GAL-FXR EC50) [nM]
23 | CN(C)C(=O)c1cc(F)c2nc(N3CCC4(CC3)CC(=Cc3c(-c5c(Cl)cncc5Cl)noc3C(F)(F)F)C4)sc2c1 [Example 192] | 677 | 
24 | CCN(CC)C(=O)c1cc(OC2CCC2)c2cc(N3CCC4(CC3)CC(Cc3c(-c5ccccc5C(F)(F)F)noc3C3CC3)C4)ccc2n1 [Example 183] | 51 | 
25 | CN(C)C(=O)c1cc(C(F)(F)F)c2cc(N3CCC4(CC3)CC(=Cc3c(-c5ccccc5C(F)(F)F)noc3C(F)(F)F)C4)ccc2n1 [Example 191] | 306 | 
26 | O=C(O)c1cc(OC2CCC2)c2cc(N3CCC4(CC3)CC(=Cc3c(-c5ccccc5OC(F)(F)F)noc3C3CC3)C4)ccc2n1 [Example 115] | 64 | 
27 | O=C(O)c1cc(OC(F)F)c2cc(N3CCC4(CC3)CC(Cc3c(-c5ccccc5C(F)(F)F)noc3C3CC3)C4)ccc2n1 [Example 79] | 2 | 
28 | O=C(O)c1ccc2cc(N3CCC4(CC3)CC(=Cc3c(-c5ccccc5C(F)(F)F)noc3C(F)(F)F)C4)ccc2n1 [Example 193] | 502 | 
29 | O=C(O)c1cc(OC2CCCC2)c2cc(N3CCC4(CC3)CC(Cc3c(-c5ccccc5C(F)(F)F)noc3C3CC3)C4)ccc2n1 [Example 123] | 6 | 
30 | Cc1cccc(Cl)c1-c1noc(C2CC2)c1C=C1CC2(CCN(c3ccc4c(C(=O)O)cn(C)c4c3)CC2)C1 [Example 59] | 10 | 
31 | O=C(O)c1ccc(N2CCC3(CC2)CC(=Cc2c(-c4c(Cl)cccc4Cl)cnn2C2CC2)C3)nc1 [Example 23] | 4640 | 
32 | O=C(O)c1cc(OCC2CC2)c2cc(N3CCC4(CC3)CC(=Cc3c(-c5ccccc5OC(F)(F)F)noc3C3CC3)C4)ccc2n1 [Example 87] | 34 | 
33 | O=C(O)c1cc(F)c2nc(N3C4CCC3CC3(CC(Nc5c(-c6c(Cl)cccc6Cl)noc5C5CC5)C3)C4)sc2c1 (stereo not shown) [Example 16] | 514 | 
34 | Clc1cccc(Cl)c1-c1noc(C2CC2)c1C=C1CC2(CCN(c3cccc(-c4nn[nH]n4)c3)CC2)C1 [Example 51] | 1080 | 
35 | O=C(O)C1CCc2cc(N3CCC4(CC3)CC(=Cc3c(-c5ccccc5OC(F)(F)F)noc3C3CC3)C4)ccc2N1 (stereo not shown) [Example 112] | 1030 | 
36 | CC(C)Oc1cc(C(=O)O)nc2ccc(N3CCC4(CC3)CC(=Cc3c(-c5c(Cl)cncc5Cl)noc3C3CC3)C4)cc12 [Example 85] | 3 | 
37 | CC(=O)N1CCc2cc(N3CCC4(CC3)CC(=Cc3c(-c5ccccc5OC(F)(F)F)noc3C3CC3)C4)ccc2C1 [Example 179, 1-(6-(2-((5-Cyclopropyl-3-(2-(trifluoromethoxy)phenyl)isoxazol-4-yl)methylene)-7-azaspiro[3.5]nonan-7-yl)-3,4-dihydroisoquinolin-2(1H)-yl)ethan-1-one] | 1600 | 
38 | Cc1cc(C(=O)O)cc2sc(N3CCC4(CC3)CC(=Cc3c(-c5c(Cl)cncc5Cl)noc3C3CC3)C4)nc12 [Example 89] | 53 | 
39 | O=C(O)C1(c2ccc(N3CCC4(CC3)CC(=Cc3c(-c5c(Cl)cccc5Cl)noc3C3CC3)C4)cc2)CCC1 [Example 42] | 210 | 
40 | O=C(O)c1cc2ccc(N3CCC4(CC3)CC(=Cc3c(-c5ccccc5C(F)(F)F)noc3C3CC3)C4)cc2nn1 [Example 36] | 878 | 
41 | C=Cc1cncc(Cl)c1-c1noc(C2CC2)c1C=C1CC2(CCN(c3nc4c(F)cc(C(=O)O)cc4s3)CC2)C1 [Example 159] | 350 | 
42 | Cn1cc(C(=O)O)c2ccc(N3CCC4(CC3)CC(=Cc3c(-c5ccccc5OC(F)(F)F)noc3C3CC3)C4)cc21 [Example 27] | 21 | 
43 | O=C(O)c1cc(F)c2nc(N3CCC4(CC3)CC(Cc3c(-c5ccccc5C(F)(F)F)noc3C3CC3)C4)sc2c1 [Example 3, 2-(2-((5-Cyclopropyl-3-(2-(trifluoromethyl)phenyl)isoxazol-4-yl)methyl)-7-azaspiro[3.5]nonan-7-yl)-4-fluorobenzo[d]thiazole-6-carboxylic acid] |  | 85
